Data: patent US7084166B2, “Bis-heterocyclic compounds with antitumour and chemosensitising activity” (Sigma-Tau Industrie Farmaceutichee Riunite S.p.A., priority 2000, dated 2006)

Columns and labels:
Assay type in all cases: cell-based
[1] = test system: LoVo (human colon adenocarcinoma); test: Cytotoxicity test on sensitive tumour cell lines (sulforodamine B test); conditions: Homo sapiens, LoVo; 24 h incubation, survival after 48 h; ± S.D.; read-out: antiproliferative activity IC50, Lovo
Description: (§1) This test was used to evaluate the survival of the human cell lines MCF-7 (human mammary carcinoma), LoVo (human colon adenocarcinoma), and MES-SA (human uterine sarcoma). The tumour cells were incubated with the compound, at scalar concentrations, (500 μM÷0.97 μM) for 24 hours; the compound was then removed and cell survival was evaluated after 48 hours using the sulforodamine B test (J. Natl. Cancer Inst. 82, 1107–1112). The antiproliferative activity of the compounds was evaluated in terms of the IC50 (concentration of the molecule that inhibits 50% of cell survival) processed with a curve-fitting program (Am. J. Physiol. 1978., 235, E97–E102) and expressed as μM±S.D.

[2] = test system: MCF-7 (human mammary carcinoma); test: as above; conditions: Homo sapiens, MCF7; 24 h incubation, survival after 48 h; ± S.D.; read-out: antiproliferative activity IC50, MCF-7
Description: as §1

[3] = test system: MES-SA (human uterine sarcoma); test: as above; conditions: Homo sapiens, MES-SA; 24 h incubation, survival after 48 h; ± S.D.; read-out: antiproliferative activity IC50, Mes-Sa
Description: as §1

[4] = test system: LoVo-Dx (human colon adenocarcinoma); test: Cytotoxicity test on resistant tumour cell lines, tested compound alone; conditions: Homo sapiens, LoVo/DX; 24 h incubation, survival after 48 h; ± SD
Description: (§2) This test was used to evaluate the survival of human cell lines resistant to doxorubicin (about 100 times) and cross-resistant to daunorubicin, actinomycin D, mitoxantrone, vincristine, vinblastin, taxol, colchicine, and etoposide.
(§3) The following cell lines were used: MCF-7-Dx (human mammary carcinoma), LoVo-Dx (human colon adenocarcinoma), MES-SA Dx (human uterine sarcoma).
(§4) Before using the association doxorubicin-tested compound, the cytotoxicity of the cells was evaluated with the tested compound (alone) as follows: the cells were incubated with the compound, at scalar concentrations (500 μM÷0.97 μM), for 24 hours; the compound was then removed and cell survival was evaluated after 48 hours with the above-mentioned sulforodamine B test. The antiproliferative activity of the compounds was evaluated in terms of IC50 (concentration of the compound that inhibits 50% of cell survival) processed with the above-mentioned curve-fitting program.

[5] = test system: MCF-7-Dx (human mammary carcinoma); test: as above; conditions: Homo sapiens, MCF7/DX, 24 h incubation, survival after 48 h; ± SD
Description: as §2, §3, §4

[6] = test system: MES-SA Dx (human uterine sarcoma); test: as above; conditions: Homo sapiens, MES-SA Dx; 24 h incubation, survival after 48 h; ± SD
Description: as §2, §3, §4

[7] = test system: NB4 cells (acute promyelocytic leukaemia); test: Cell differentiation by reduction of nitroblue tetrazolium (NBT), with suboptimal ATRA; conditions: combined with suboptimal doses of ATRA, NBT
Description: The first line used was the NB4 cell line, bearing the t(15;17) chromosomal translocation which generates the fusion protein PML/RARα. This line is very sensitive to the differentiative action of pharmacological doses of ATRA (10^−7–10^−6 M).
(§5) The HL60 and NB4 cells were seeded at a density of 150,000 cells/ml in RPMI 1640 medium containing 10% foetal calf serum, and were treated with the tested compounds in the presence and absence of suboptimal doses of ATRA (5–10 nM for NB4 and 0.5 μM for HL60, respectively) in the dark, and returned to the incubator for 3 days without ever replacing the culture medium.
(§6) To analyse the differentiative effect of the tested compounds vs ATRA, on the third day of treatment 500,000 viable cells were harvested from each sample, centrifuged for 10 minutes at 1.000 rpm and resuspended in 1 ml of RPMI 1640 medium containing 10% foetal calf serum, 1 mg/ml of nitroblue tetrazolium (NBT) and 100 ng of PMA (phorbol 12-myristate 13-acetate).
(§7) The cells thus resuspended were incubated in the dark at 37° C. for 60 minutes.
(§8) At the end of the incubation, the cell suspension was centrifuged for 10 minutes at 10,000 rpm; the pellet obtained was then resuspended in 1 ml of PBS containing 10% Triton X-100 and sonicated to lysis.
(§9) Spectrophotometric readings of the samples were then taken at a wavelength of 540 nm: samples containing differentiated cells shifted towards a violet colour, whereas control samples and/or samples with non-differentiated cells were colourless or, at any rate, much less intensely coloured.
(§10) The AC50 (Activating Concentration) is the concentration at which the tested compound induces 50% of cell differentiation.
(§11) Fold Induction is the increase in the differentiation value of the cell sample treated with the tested compound +ATRA vs the value of the cell sample treated with ATRA alone. This value provides an indication of the ability (potency) of the tested compound to enhance ATRA induced cell differentiation.

[8] = test system: HL60 cells (acute promyelocytic leukaemia); test: as above; conditions: combined with suboptimal doses of ATRA
Description: (§12) The second line used was the HL60 cell line which responds to ATRA (but is less sensitive than the NB4 cell line).
as §5, §6, §7, §8, §9, §10, §11

[9] = test system: HL60 cells (acute promyelocytic leukaemia); test: Flow cytofluorimetric analysis of cell cycle; conditions: for G0/G1 / G2/M / S: day 3
Description: as §12, §5
To assess the effect of the tested compounds on the various phases of the cell cycle, on the third day of treatment 500,000 cells were harvested, centrifuged at 1,000 rpm for 10 minutes, washed twice in PBS w/o (PBS without calcium and magnesium) and fixed in a solution of 50% PBS w/o+50% methanol/acetone (1:4 v/v) for at least 1 hour; the cells were then centrifuged as described, washed in PBS w/o and centrifuged again.
200 μl of propidium iodide 100 μg/ml and 200 μl of RNase 150 kU/mg were then added to the cell pellet.
After a 30-min incubation in the dark at room temperature, the samples were analysed by flow cytofluirometry.

- fold induction (differentiation, compound + ATRA vs ATRA alone) [7]: 1.85
- fold induction (differentiation, compound + ATRA vs ATRA alone) [8]: 2.2
SMILES: OCCCCC(c1c[nH]c2cc3c(cc12)OCO3)c1c[nH]c2cc3c(cc12)OCO3 [ST 1422, 5-hydroxy-1,1-di-(5,6-methylenedioxy-indol-3-yl)-pentane]
- IC50 [1]: 23 ± 4.4 µM
- IC50 [2]: 43.1 ± 1.2 µM
- IC50 [3]: 79.3 ± 7.8 µM
- IC50 [4]: 22.3 ± 2.9 µM
- IC50 [5]: 40.1 ± 1.2 µM
- IC50 [6]: 73.3 ± 2.7 µM
- AC50 ([7]; Homo sapiens, NB-4, 72 h, 3 days, read-out: AC50 (concentration at which the tested compound induces 50% of cell differentiation)): 9.8 ± 0.1 µM
- AC50 ([8]; Homo sapiens, HL-60, 72 h, 3 days, read-out: AC50 (concentration at which the tested compound induces 50% of cell differentiation)): 13.6 ± 2.6 µM
- G0/G1 ([9]; compound 1 μM + ATRA 0.5 μM): 66.8
- G2/M ([9]; compound 1 μM + ATRA 0.5 μM): 11.0
- S ([9]; compound 1 μM + ATRA 0.5 μM): 22.2
- G0/G1 ([9]; compound 5 μM + ATRA 0.5 μM): 65.1
- G2/M ([9]; compound 5 μM + ATRA 0.5 μM): 11.4
- S ([9]; compound 5 μM + ATRA 0.5 μM): 23.5
- G0/G1 ([9]; compound 10 μM + ATRA 0.5 μM): 62.5
- G2/M ([9]; compound 10 μM + ATRA 0.5 μM): 12.5
- S ([9]; compound 10 μM + ATRA 0.5 μM): 25.0
- G0/G1 ([9]; compound 50 μM + ATRA 0.5 μM): 75.7
- G2/M ([9]; compound 50 μM + ATRA 0.5 μM): 13.8
- S ([9]; compound 50 μM + ATRA 0.5 μM): 10.5
- effect of the compound alone on induction of apoptosis (in words) ([9]; compound alone): showed no effect on the induction of apoptosis
- G0/G1 ([9]; compound alone 1 μM): 56.2
- G2/M ([9]; compound alone 1 μM): 10.0
- S ([9]; compound alone 1 μM): 33.8
- G0/G1 ([9]; compound alone 5 μM): 57.6
- G2/M ([9]; compound alone 5 μM): 10.4
- S ([9]; compound alone 5 μM): 32.0
- G0/G1 ([9]; compound alone 10 μM): 57.8
- G2/M ([9]; compound alone 10 μM): 10.5
- S ([9]; compound alone 10 μM): 31.7
- G0/G1 ([9]; compound alone 50 μM): 65.8
- G2/M ([9]; compound alone 50 μM): 16.4
- S ([9]; compound alone 50 μM): 17.8
